# Source: PMC6934184, “Selective DNA-PKcs inhibition extends the therapeutic index of localized radiotherapy and chemotherapy” (The Journal of Clinical Investigation, 2019)
# Target: T1, MAPK1 (ERK2) (Homo sapiens, UniProt P28482)
# T1 construct: purchased Thermo Fisher Scientific (Life Technologies) SelectScreen
# Assay: SelectScreen Z'LYTE
# Assay type: biochemical
# Method in brief: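 SelectScreen broad panel; activity (Z'LYTE, Adapta) plus binding formats. ATP: Km app for CSF1R Z'LYTE; 10 for CAMK1 Adapta. Readout = % per kinase.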
# T1 sequence (P28482 whole entry): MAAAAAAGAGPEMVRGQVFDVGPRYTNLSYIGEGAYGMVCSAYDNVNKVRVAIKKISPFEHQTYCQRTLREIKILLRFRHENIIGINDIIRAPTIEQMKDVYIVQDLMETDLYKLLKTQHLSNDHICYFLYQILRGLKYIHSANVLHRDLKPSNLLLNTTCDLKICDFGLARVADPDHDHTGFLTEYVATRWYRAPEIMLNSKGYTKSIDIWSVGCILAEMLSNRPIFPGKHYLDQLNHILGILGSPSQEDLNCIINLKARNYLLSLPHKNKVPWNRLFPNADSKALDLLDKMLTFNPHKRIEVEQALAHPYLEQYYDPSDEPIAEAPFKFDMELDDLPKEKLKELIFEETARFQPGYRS
smiles,measurement,value
CN(C(=O)CN1CCOCC1)c1ccc2sc3c(-c4cccc5c(=O)cc(N6CC7CCC(C6)O7)oc45)cccc3c2c1 [NU5455],inhibition at 1 µM,10.1%
